Test results as given in patent US5231182A, “Method of making certain aryl containing amides” (American Cyanamid Company, priority 1991, dated 1993).

Assays:
PAF receptor = biological target: T1, PAF receptor (Oryctolagus cuniculus, UniProt G1TEI7); assay: Platelet Activating Factor antagonism in vitro: inhibition of PAF induced platelet aggregation in rabbit platelet rich plasma; assay type: cell-based, rabbit (New Zealand White)
T1 construct: centrifuged at 800 rpm for 10-15 minutes at room temperature to recover the platelet rich plasma (PRP); endogenous in cells; host or cells: platelets in citrated platelet rich plasma from male New Zealand White rabbits (Oryctolagus cuniculus)
Description: Test compounds are evaluated as PAF receptor antagonists in vitro by measuring inhibition of PAF (platelet activating factor) induced platelet aggregation. Platelet aggregation is measured by a modification of the method described in […], et. al., J. Med. Chem., 27 1174, 1984. […] All syringes and pipets are plastic. The blood is gently mixed and immediately centrifuged at 800 rpm for 10-15 minutes at room temperature to recover the platelet rich plasma (PRP). Platelet poor plasma (PPP) is prepared by centrifuging PRP at 2800 rpm for 10 minutes at room temperature. Dilutions (1:3000) of PRP in Isoton® diluent are made and platelet counts are determined on a Coulter Thrombocounter which is standardized with platelet reference standards (Interscience Platelet Control, Portland, Oreg.). PRP platelet counts are adjusted to approximately 400,000-500,000 platelets/μl by the addition of PPP. L-PAF (Platelet Activating Factor) is obtained from Calbiochem. […] All solutions are made up in plastic tubes, stored on ice and protected from heat and light. Solutions are prepared fresh or frozen at -20° C. and used within 48 hours. Incubation mixtures consisted of 400 μl PRP, 50 μl of saline diluent or test compound and 50 μl of PAF agonist. More specifically, 400 μl of PRP is stabilized in a cuvette for 1-2 minutes at 37° C. in the aggregometer to achieve a stable baseline, then 50 μl of saline or test compound is added and incubated for 5 minutes before addition of the challenge concentration of PAF. A submaximal concentration is determined from the dose response curve for PAF for that experiment. In general, the challenge concentration is 5E-8 or IE-7M. Aggregation is monitored for 5 minutes. Samples containing test compound or diluent are run simultaneously for comparison. Test compounds are initially evaluated at a screening concentration of 1E-5M. […] The recording equipment consists of a dual channel Chronolog aggregometer connected to a dual channel 10MV full scale deflection Omniscribe chart recorder (Houston Instruments). The chart recorder is calibrated daily with the use of a suspension of Bio-Rad latex beads (S-X 12 400 mesh) which has a density slightly greater than rabbit PRP. […] These limits defined a full scale deflection. The aggregation traces are analyzed by a digitizing method (C. Kohler and B. Zoltan, J. Pharm. Methods, 12, 113, 1984) with x, y coordinate data stored in a computer file. A suitable program computes parameters of interest such as the magnitude of aggregation. | ^a dose of compound that gives the indicated % inhibition. | ^b the % inhibition of PAF induced platelet aggregation. | ^c the molar concentration of compound that will inhibit 50% of the | platelet aggretation induced by PAF given at the indicated PAF challenge | concentration.

PAF induced lethality = PAF induced lethality in mice; assay type: in vivo; conditions: PAF 150 μg/kg IV
Description: PAF given I.V. to mice causes an immediate hypotensive shock leading to death in 1 hour or less. Compounds are given intraperitoneally or P.O. at various times before the PAF challenge. Animals alive after 2 hours are counted and the activity of test compounds expressed as % survival corrected for any control (saline treated) animals which survived the PAF challenge.
Effect of Compound Given I.V. or P.O. in Protecting
Mice from a Lethal Challenge of PAF^a
^a lethal challenge of PAF is 150 μg/kg IV.

[1] = tested on: Endotoxin induced shock and mortality; assay: Endotoxin induced shock and mortality in mice: high dose acute mouse endotoxemia; assay type: in vivo, Male Balb/c mice; conditions: administered ip prior to a lethal ip injection of endotoxin
From the text: (§1) Endotoxin administration produces a shock-like state characterized by vascular permeability changes, hypotension, neutropenia, thrombocytopenia,multiple organ damage and death. The major mediators released after endotoxin injection are TNF (tumor necrosis factor), PAF (platelet activating factor) and […] (interleukin I). PAF administration mimics the signs and symptoms of endotoxin induced shock and death and endotoxin also induces the release of PAF. Therefore, the effects of endotoxin should be blocked with a PAF antagonist.
(§2) Male Balb/c mice (approximately 20 g) are obtained from Charles River Laboratories and used after a one-two week acclimation period. Animals are given (ip) test compound dissolved in saline or water (sonicated and heated) at different time intervals prior to and after the ip injection of endotoxin (usually 2 hours before LPS endotoxin, and 3-4 hours after). Sigma E. Coli endotoxin, 0111:B4, phenol extraction, catalog #L2630 is used for these studies.
This LD value is approximately 50 mg/kg i.p. The number of survivors in each group (control or treated with test compound) is recorded after 24, 48 or 72 hours and the treated groups (receiving test compound and endotoxin) are compared with the untreated, control group (receiving endotoxin only) or saline control (receiving saline and endotoxin).
Effect of Compounds Given I.P. in High Dose Acute Mouse Endotoxemia […]

[2] = tested on: Endotoxin induced shock and mortality; assay: Endotoxin induced shock and mortality in mice: low dose, chronic mouse endotoxemia; assay type: in vivo, Male Balb/c mice; conditions: dose 10 mg/kg i.p.
From the text: as §1, §2
For the chronic endotoxin shock model, a lower dose of endotoxin is administered (generally 15 to 20 mg/kg i.p). This dose gives an LD80 in two to four days following LPS administration. Test compounds are given 2 hours before LPS and 3-4 hours after on the first day, followed by 3 or 4 consecutive days of BID dosing. The number of survivors in each group is recorded each day for a period of 5 to 7 days.
Effect of Compounds Given i.p. in Low Dose, Chronic Mouse Endoxemia

T1 sequence (G1TEI7 1-342): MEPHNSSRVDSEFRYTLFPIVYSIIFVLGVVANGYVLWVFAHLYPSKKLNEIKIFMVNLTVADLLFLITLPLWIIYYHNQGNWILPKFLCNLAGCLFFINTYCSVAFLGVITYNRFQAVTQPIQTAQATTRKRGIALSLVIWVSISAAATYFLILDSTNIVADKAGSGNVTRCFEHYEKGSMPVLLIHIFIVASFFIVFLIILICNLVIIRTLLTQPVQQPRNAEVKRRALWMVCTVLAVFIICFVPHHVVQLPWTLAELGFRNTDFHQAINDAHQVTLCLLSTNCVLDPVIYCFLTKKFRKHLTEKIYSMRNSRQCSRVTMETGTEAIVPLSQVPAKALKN

CCCCCCCCCCCCCCOc1cccc(CC(=O)Nc2cccc(C[n+]3csc(C)c3)c2)c1.[Br-] [5-Methyl-3-[[3-[[[3-(tetradecyloxy)phenyl]acetyl]amino]phenyl]methyl]thiazolium bromide]
% INH (inhibition of PAF induced platelet aggregation) (PAF receptor; dose .00001 M, PAF chall conc 5E-9 M): 100.0%
PAF antagonism (in words) (PAF receptor; in vitro platelet aggregation studies): known to be a PAF antagonist
% Survival (PAF induced lethality; P.O. 5 mg/kg): 40%
% Survival (PAF induced lethality; P.O. 20 mg/kg): 59%
activity against lethal ip injection of endotoxin [1]: did show some activity
% Survival ([2]; day 0): 100%
No Surv./tot. ([2]; day 0): 30/30
% Survival ([2]; day 1): 100%
No Surv./tot. ([2]; day 1): 30/30
% Survival ([2]; day 2): 63%
No Surv./tot. ([2]; day 2): 19/30
% Survival ([2]; day 3): 46%
No Surv./tot. ([2]; day 3): 14/30
% Survival ([2]; day 4): 43%
No Surv./tot. ([2]; day 4): 13/30
% Survival ([2]; day 5): 43%
No Surv./tot. ([2]; day 5): 12/30
No Surv./tot. ([2]; day 6): 12/30
% Survival ([2]; day 7): 43%
No Surv./tot. ([2]; day 7): 12/30
